These results are taken from patent US11332455B2, “α,β-unsaturated amide compound” (KYOWA KIRIN CO., LTD., priority 2015, dated 2022).

Assay in all cases: Cell growth inhibitory effect, cell counting kit 8, 6 days
What all share (format): cell-based
(Tetrazolium assays rely on reduction of a dye to a coloured formazan, in cell work by metabolically active cells.)

In assay [1] the test system is HuH28, a human liver cancer cell line. The following applies: 144 h, HuH28 cells, 6 days incubation. An excerpt: (§1) Cell growth inhibitory effect on human mesothelioma, human liver cancer, human ovarian cancer, and […]
(§2) NCI-H226 cells, a human mesothelioma cell line (ATCC, CRL-5826), NCI-H322 cells, a human lung cancer cell line (the European Collection of Authenticated Cell Cultures, 95111734), OVTOKO cells, a human ovarian cancer cell line (JCRB cell bank, JCRB1048) and HuH28, a human liver cancer cell line (JCRB cell bank, JCRB0426) were each subcultured by keeping the cell density under 80% in a RPMI1640 culture medium with 10% fetal bovine serum (FBS). NCI-H226 cells, NCI-H322 cells and SSP-25 cells were each suspended in the RPM11640 culture medium mentioned above, and plated to a 96-well flat-bottom plate at 500 cells/well in each well, and incubated at 37° C. in an incubator with 5% CO2 for one day. After the incubation, the evaluation of cell growth inhibitory activity was started. OVTOKO cells were suspended in the RPMI1640 culture medium mentioned above, and plated to a 96-well flat-bottom plate at 250 cells/well in each well, and incubated it at 37° C. in an incubator with 5% CO2 for one day. After the incubation, the evaluation of the cell growth inhibitory activity was started. The next day, a test compound was serially diluted to 5 times of its final concentration in the RPM11640 culture medium mentioned above, and the diluted solution was added to each well. In this case, the final concentration of DMSO in each well was adjusted to 0.1%. After the test compound was added, cells were incubated at 37° C. in an incubator with 5% CO2 for 6 days. At the addition of the test compound and 6 days after the addition, the cell counting measurement was performed using a cell counting kit 8 (made by DOJINDO) according to a protocol equivalent to DOJINDO's recommendation. A reagent contained in the kit was added to each plate and color reaction was performed for 2 or 3 hours at 37° C. in an incubator with 5% CO2. After the reaction, an absorbance at wavelength of 450 nm was measured using a microplate reader. A growth inhibition rate was calculated according to the following formula, from which the concentration of a test compound at which cell growth was inhibited by 50% (GI50 value) was determined.

The subject of assay [2] is NCI-H226 cells, a human mesothelioma cell line. The following applies: 144 h, 6 days incubation, group less than 100 nmol/L.
From the text: as §1, §2

The test system of assay [3] is NCI-H322 cells, a human lung cancer cell line. The following applies: 144 h, 6 days incubation.
From the text: as §1, §2

Consider `C=CC(=O)NC1CCOc2c1ccc(Oc1ccc(C(F)(F)F)cc1)c2F` (racemic) [Compound 31, N-[8-Fluoro-7-{4-(trifluoromethyl)phenoxy}chroman-4-yl]acrylamide], for which the values for the GI50 in assay [1], in assay [2] and in assay [3] were less than 3000 nM, less than 100 nM and less than 1000 nM, respectively.
As for `C=CC(=O)NC1CCOc2c1ccc(Oc1ccc(C(F)(F)F)cc1)c2OC` (racemic) [Compound 33, N-[8-Methoxy-7-{4-(trifluoromethyl)phenoxy}chroman-4-yl]acrylamide], the values for the GI50 in assay [1], in assay [2] and in assay [3] were less than 3000 nM, less than 100 nM and less than 1000 nM, respectively.
As to `C=CC(=O)NC1COc2c(Oc3ccc(C(F)(F)F)cc3)cccc2C1=O` (racemic) [Compound 40, N-[4-Oxo-8-{4-(tolyloromethyl)phenoxy}chroman-3-yl]acrylamide], the GI50 was less than 3000 nM in assay [1], less than 100 nM in assay [2] and less than 1000 nM in assay [3].
`C=CC(=O)N[C@@H]1c2ccc(Oc3ccc(C(F)(F)F)cc3)cc2OC[C@H]1F` (relative stereo) [Compound 22, trans-N-[3-Fluoro-7-{4-(trifluoromethyl)phenoxy}chroman-4-yl]acrylamide]: the values for the GI50 in assay [1], in assay [2] and in assay [3] were less than 3000 nM, less than 100 nM and less than 1000 nM, respectively.
For `C=CC(=O)N[C@H]1CC[C@@H](Oc2cccc(Cl)c2)c2ncccc21` (relative stereo) [Compound 68, cis-N-{8-(3-Chlorophenoxy)-5,6,7,8-tetrahydroquinolin-5-yl}acrylamide], the values for the GI50 in assay [1], in assay [2] and in assay [3] were less than 3000 nM, less than 100 nM and less than 1000 nM, respectively.
Take `C=CC(=O)N[C@H]1CC[C@@H](Oc2ccc(C(F)(F)F)cc2)c2nc(OC)ccc21` (relative stereo) [Compound 179, cis-N-[2-Methoxy-8-{4-(trifluoromethyl)phenoxy}-5,6,7,8-tetrahydroquinolin-5-yl]acrylamide]: the GI50 is less than 3000 nM in assay [1], less than 100 nM in assay [2] and less than 1000 nM in assay [3].
For `C=CC(=O)N[C@H]1CC[C@@H](Oc2ccc(C(F)(F)F)cc2)c2nc(C3CC3)ccc21` (relative stereo) [Compound 185, cis-N-[2-Cyclopropyl-8-{4-(trifluoromethyl)phenoxy}-5,6,7,8-tetrahydroquinolin-5-yl]acrylamide] the same measures were less than 3000 nM, less than 100 nM and less than 1000 nM.
Take `C=CC(=O)N[C@H]1CC[C@@H](Oc2ccc(C(F)(F)F)c(F)c2)c2nc(Cl)ccc21` (relative stereo) [Compound 187, cis-N-[2-Chloro-8-{3-fluoro-4-(trifluoromethyl)phenoxy}-5,6,7,8-tetrahydroquinolin-5-yl]acrylamide]: the 50% growth inhibitory concentration (GI50) was less than 3000 nM in assay [1], less than 100 nM in assay [2] and less than 1000 nM in assay [3].
Turning to `C=CC(=O)N[C@H]1CC[C@@H](Oc2ccc(C(F)(F)F)cn2)c2nc(Cl)ccc21` (relative stereo) [Compound 189, cis-N-(2-Chloro-8-[{5-(trifluoromethyl)pyridin-2-yl}oxy]-5,6,7,8-tetrahydroquinolin-5-yl)acrylamide], the GI50 was less than 3000 nM in assay [1], less than 100 nM in assay [2] and less than 1000 nM in assay [3].
For the compound `C=CC(=O)N[C@@H]1CC[C@H](Oc2ccc(C(F)(F)F)cc2)c2ncc(Cl)cc21` (relative stereo) [Compound 190, N-((5R*,8S*)-3-Chloro-8-(4-(trifluoromethyl)phenoxy)-5,6,7,8-tetrahydroquinolin-5-yl)acrylamide], the values for the GI50 in assay [1], in assay [2] and in assay [3] were less than 3000 nM, less than 100 nM and less than 1000 nM, respectively.
For the compound `C=CC(=O)NC1CCOc2cc(Oc3ccc(C(F)(F)F)cc3)ccc21` (stereo not drawn) [Compound 5, N-[7-{4-(trifluoromethyl)phenoxy}chroman-4-yl]acrylamide], the GI50 was less than 3000 nM in assay [1], less than 100 nM in assay [2] and less than 1000 nM in assay [3].
As to `C=CC(=O)NC1CCOc2c1ccc(Oc1ccc(C(F)(F)F)cc1)c2C` (stereo not drawn) [Compound 28, N-[8-Methyl-7-{4-(trifluoromethyl)phenoxy}chroman-4-yl]acrylamide], the GI50 is less than 3000 nM in assay [1], less than 100 nM in assay [2] and less than 1000 nM in assay [3].
Turning to `C=CC(=O)Nc1cncc(Oc2cccc(C(F)(F)F)c2)c1` [Compound 95, N-[5-{3-(Trifluoromethyl)phenoxy}pyridin-3-yl]acrylamide], the GI50 is less than 3000 nM in assay [1], less than 100 nM in assay [2] and less than 1000 nM in assay [3].
Take `C=CC(=O)Nc1cncc(Oc2ccc(C(F)(F)F)cc2)c1` [Compound 96, N-[5-{4-(Trifluoromethyl)phenoxy}pyridin-3-yl]acrylamide]: the 50% growth inhibitory concentration (GI50) in assay [1] was less than 3000 nM; in assay [2], less than 100 nM; in assay [3], less than 1000 nM.
Turning to `C=CC(=O)Nc1cncc(Oc2cncc(C(F)(F)F)c2)c1` [Compound 107, N-(5-[{5-(Trifluoromethyl)pyridin-3-yl}oxy]pyridin-3-yl)acrylamide], the GI50 in assay [1] is less than 3000 nM; in assay [2] it was less than 100 nM; in assay [3], less than 1000 nM.
As for `C=CC(=O)Nc1cncc(Oc2ccnc(C(F)(F)F)c2)c1` [Compound 108, N-(5-[{2-(Trifluoromethyl)pyridin-4-yl}oxy]pyridin-3-yl)acrylamide], the GI50 was less than 3000 nM in assay [1], less than 100 nM in assay [2] and less than 1000 nM in assay [3].
On to `C=CC(=O)Nc1ccc(Oc2ccccc2)c2ncccc12` [Compound 111, N-(8-Phenoxyquinolin-5-yl)acrylamide], for which the concentration for 50% growth inhibition (GI50) in assay [1] is less than 3000 nM; in assay [2] it was less than 100 nM; in assay [3], less than 1000 nM.
As to `C=CC(=O)Nc1ccc(Oc2ccccc2)c2nc(C)ccc12` [Compound 112, N-(2-Methyl-8-phenoxyquinolin-5-yl)acrylamide], the figures for the GI50 in assay [1], in assay [2] and in assay [3] were less than 3000 nM, less than 100 nM and less than 1000 nM, respectively.
Take `C=CC(=O)Nc1ccc(Oc2cccc(Cl)c2)c2ncccc12` [Compound 114, N-{8-(3-Chlorophenoxy)quinolin-5-yl}acrylamide]: the GI50 in assay [1] is less than 3000 nM; in assay [2] it was less than 100 nM; in assay [3], less than 1000 nM.
On to `C=CC(=O)Nc1ccc(Oc2ccc(Cl)cc2)c2nc(C)ccc12` [Compound 117, N-{8-(4-Chlorophenoxy)-2-methylquinolin-5-yl}acrylamide], for which the figures for the GI50 in assay [1], in assay [2] and in assay [3] were less than 3000 nM, less than 100 nM and less than 1000 nM, respectively.
Consider `C=CC(=O)Nc1ccc(OCC2CCC(F)(F)CC2)c2ncccc12` [Compound 126, N-[8-{(4,4-Difluorocyclohexyl)methoxy}quinolin-5-yl]acrylamide], for which the GI50 in assay [1] was less than 3000 nM; in assay [2], less than 100 nM; in assay [3], less than 1000 nM.
On to `C=CC(=O)NCc1ccc(Oc2ccc(Cl)cc2)c2ncccc12` [Compound 134, N-[{8-(4-Chlorophenoxy)quinolin-5-yl}methyl]acrylamide], for which the values for the GI50 in assay [1], in assay [2] and in assay [3] were less than 3000 nM, less than 100 nM and less than 1000 nM, respectively.
Turning to `C=CC(=O)NCc1ccc(Oc2cccc(C(F)(F)F)c2)c2ncccc12` [Compound 137, N-([8-{3-(Trifluoromethyl)phenoxy}quinolin-5-yl]methyl)acrylamide], the GI50 in assay [1] was less than 3000 nM; in assay [2], less than 100 nM; in assay [3], less than 1000 nM.
In the case of `C=CC(=O)NCc1ccc(Oc2ccc(C(F)(F)F)cc2)c2ncccc12` [Compound 138, N-([8-{4-(Trifluoromethyl)phenoxy}quinolin-5-yl]methyl)acrylamide], the values for the concentration for 50% growth inhibition (GI50) in assay [1], in assay [2] and in assay [3] were less than 3000 nM, less than 100 nM and less than 1000 nM, respectively.
For `C=CC(=O)NCc1ccc(Oc2ccc(C(F)(F)F)cc2)c2nc(Cl)ccc12` [Compound 139, N-([2-Chloro-8-{4-(trifluoromethyl)phenoxy}quinolin-5-yl]methyl)acrylamide] the same measures were less than 3000 nM, less than 100 nM and less than 1000 nM.
`C=CC(=O)NCc1ccc(Oc2ccc(C(F)(F)F)nc2)c2ncccc12` [Compound 143, N-{(8-[{6-(Trifluoromethyl)pyridin-3-yl}oxy]quinolin-5-yl)methyl}acrylamide]: the GI50 in assay [1] was less than 3000 nM; in assay [2], less than 100 nM; in assay [3], less than 1000 nM.
For `C=CC(=O)NCc1cc(Oc2ccc(C(F)(F)F)nc2)nc2ccccc12` [Compound 149, N-{(2-[{6-(Trifluoromethyl)pyridin-3-yl}oxy]quinolin-4-yl)methyl}acrylamide], the GI50 in assay [1] is less than 3000 nM; in assay [2], less than 100 nM; in assay [3] it was less than 1000 nM.

One may read the GI50 as the concentration giving 50% growth inhibition. High values mean lower sensitivity of the cells, low ones greater sensitivity of the cells.
